Source: the NIST ThermoML archive (doi:10.1021/je0340699)

Experiment: molar heat capacity at saturation pressure
Details: Liquid, Large sample (1 g) DSC

CCOC(C)(C)C [2-ethoxy-2-methylpropane]
Details	molar heat capacity [J/K/mol]
277.14 K	211.4
281.17 K	213.3
283.15 K	214.2
285.16 K	215.2
287.15 K	216
289.16 K	216.9
291.14 K	217.7
293.14 K	218.5
295.15 K	219.3
297.14 K	220.1
299.15 K	220.9
301.14 K	221.7
303.16 K	222.6
305.14 K	223.3
307.15 K	224.2
309.14 K	225.3
311.15 K	225.9
313.14 K	226.7
315.16 K	227.6
317.14 K	228.6
319.15 K	229.5
321.14 K	230.1
323.15 K	231
325.14 K	231.7
327.16 K	232.6
329.15 K	233.3
331.16 K	234.2
333.15 K	235.1
335.16 K	235.9
338.16 K	237.1
339.14 K	237.4
341.15 K	238.1

CCC(C)(C)OC [2-methoxy-2-methylbutane]
Details	molar heat capacity [J/K/mol]
279.16 K	206.8
281.15 K	207.7
283.16 K	208.5
285.16 K	209.3
287.16 K	210.2
289.16 K	211
291.17 K	211.7
293.15 K	212.5
295.15 K	213.5
297.16 K	214.5
299.16 K	215.3
301.14 K	216.1
303.14 K	216.9
305.15 K	217.8
307.15 K	218.3
309.15 K	219.1
311.16 K	220.1
313.16 K	220.6
315.13 K	221.3
317.13 K	222.1
319.14 K	222.8
321.14 K	223.5
323.14 K	224.5
325.15 K	225
327.16 K	225.7
329.16 K	226.7
331.17 K	227.4
333.13 K	228.1
335.14 K	228.9
337.14 K	229.7
339.15 K	230.4
341.16 K	231
343.17 K	231.9
345.14 K	232.6
347.14 K	233.5
349.15 K	234.3
351.15 K	234.9
353.16 K	235.7
355.14 K	236.4

COC(C)(C)C [2-methoxy-2-methylpropane]
Details	molar heat capacity [J/K/mol]
277.15 K	180.9
279.15 K	181.4
281.16 K	182.3
283.15 K	183.1
285.15 K	183.8
287.14 K	184.4
289.16 K	185.3
291.15 K	186
293.16 K	186.8
295.15 K	187.7
297.14 K	188.3
299.14 K	189
301.16 K	189.7
303.16 K	190.4
305.15 K	191.1
307.15 K	191.8
309.16 K	192.6
311.16 K	193.2
313.15 K	193.9
315.15 K	194.6
317.14 K	195.2
319.16 K	196
321.15 K	196.5
323.15 K	197.3
325.15 K	198

CC(C)OC(C)C [diisopropyl ether]
Details	molar heat capacity [J/K/mol]
277.17 K	207.7
279.16 K	208.5
281.15 K	209.4
283.14 K	210.4
285.16 K	211.3
287.16 K	212.2
289.15 K	213.1
291.17 K	214
293.15 K	214.8
295.16 K	215.5
297.16 K	216.3
299.16 K	217.2
301.16 K	218
303.15 K	218.7
305.14 K	219.5
307.14 K	220.3
309.16 K	221
311.15 K	222
313.15 K	222.7
315.15 K	223.6
317.17 K	224.4
319.16 K	225.1
321.15 K	225.9
323.14 K	226.7
325.14 K	227.4
327.13 K	228.3
329.16 K	229
331.15 K	229.9
333.15 K	230.5
335.14 K	231.4
337.14 K	232.2
